This passage reports TGI and GI50 results from PubChem BioAssay (NCI).

Each structure is given as a SMILES string.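 A five-concentration, 48-hour dose response in 96-well plates underlies each endpoint, interpolated linearly between surrounding concentrations. GI50 is the concentration that inhibits growth by half. TGI denotes the concentration required for complete inhibition of growth.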

Test systems include A498 renal; ACHN renal; CAKI-1 renal; CCRF-CEM leukemia; HCC-2998 colon; NCI-H226 lung; SF-539 CNS; SN12C renal; TK-10 renal; UO-31 renal.
Common to all, as to test: NCI tumour cell line growth inhibition, 48 h

Take `CC1OC(n2cc(F)c(=O)[nH]c2=O)C=CC1=O` (stereo not given): the TGI is 36.9 µM in the experiment with A498 renal; 31.9 µM in the experiment on ACHN renal; 31.1 µM in the experiment with CAKI-1 renal; 53 µM in the experiment with CCRF-CEM leukemia; 43.8 µM in the experiment on HCC-2998 colon; 66.4 µM in the experiment with NCI-H226 lung. Moreover, the TGI in the experiment with SF-539 CNS was determined as 31 µM; in the experiment on SN12C renal, 31.8 µM; in the experiment with TK-10 renal, 30.7 µM; in the experiment with UO-31 renal, 30.3 µM.

`COc1cccc(NC(=O)/C(Cc2nc3ccccc3nc2C)=N/NC(=O)C[n+]2ccccc2)c1`: the TGI with A498 renal, in the experiment with ACHN renal, in the experiment on CAKI-1 renal, in the experiment on CCRF-CEM leukemia, in the experiment with HCC-2998 colon and in the experiment with NCI-H226 lung was above 100 µM in each case. Moreover, the TGI in the experiment on SF-539 CNS, in the experiment on SN12C renal, with TK-10 renal and in the experiment on UO-31 renal was above 100 µM throughout.

As for `CSc1nc(SC)c2c(CO)c(Br)n(Cc3ccccc3)c2n1`, the TGI in the experiment with A498 renal is 14.5 µM; in the experiment on ACHN renal it was 44.7 µM; in the experiment with CAKI-1 renal, 23.6 µM; in the experiment with CCRF-CEM leukemia it was above 100 µM; in the experiment on HCC-2998 colon, above 100 µM; with NCI-H226 lung it was 39.3 µM. Further, the TGI in the experiment with SF-539 CNS was 29.1 µM; in the experiment with SN12C renal, above 100 µM; with TK-10 renal it was 79.4 µM; in the experiment on UO-31 renal it was 44.4 µM.

As to `N#CC1CC2(CCN1C(=O)c1ccccc1)OCCO2` (stereo not given), the TGI with A498 renal, in the experiment on ACHN renal, in the experiment on CAKI-1 renal, in the experiment with CCRF-CEM leukemia, with HCC-2998 colon and in the experiment with NCI-H226 lung was above 100 µM in each case. Also, the TGI in the experiment with SF-539 CNS, in the experiment with SN12C renal, in the experiment with TK-10 renal and in the experiment with UO-31 renal was above 100 µM throughout.

For `O=Cc1c(O)c(C(=O)Nc2ccc3[nH]c(=O)[nH]c3c2)cc2ccccc12`, the TGI in the experiment with A498 renal, in the experiment on ACHN renal, in the experiment on CAKI-1 renal, in the experiment on CCRF-CEM leukemia, with HCC-2998 colon and in the experiment on NCI-H226 lung was above 100 µM throughout. The TGI in the experiment with SF-539 CNS, with SN12C renal, in the experiment with TK-10 renal and in the experiment on UO-31 renal was above 100 µM in each case.

In the case of `O=C1c2ccccc2S(=O)(=O)c2cc(-c3nn[nH]n3)ccc21`, the TGI in the experiment on A498 renal, in the experiment on ACHN renal, in the experiment on CAKI-1 renal, with CCRF-CEM leukemia, in the experiment with HCC-2998 colon and in the experiment with NCI-H226 lung was above 100 µM throughout. In addition, the TGI with SF-539 CNS, in the experiment with SN12C renal, in the experiment on TK-10 renal and in the experiment with UO-31 renal was above 100 µM in each case.

Take `COC(C)(C)C/C=C/C(C)=C/C=C/C(C)=C\C=C\C(C)=C\C=C\C=C(C)\C=C\C=C(C)\C=C\C=C(C)\C=C\CC(C)(C)OC`: the GI50 in the experiment with A498 renal, in the experiment on ACHN renal, in the experiment with CAKI-1 renal, in the experiment with CCRF-CEM leukemia, in the experiment with HCC-2998 colon and with NCI-H226 lung was above 150 µg/mL in each case. For the same molecule, the GI50 in the experiment on SF-539 CNS, with SN12C renal, in the experiment with TK-10 renal and in the experiment on UO-31 renal was above 150 µg/mL each time. The TGI in the experiment on A498 renal, with ACHN renal, in the experiment on CAKI-1 renal, in the experiment with CCRF-CEM leukemia, with HCC-2998 colon and with NCI-H226 lung was above 150 µg/mL in each case. Further, the TGI with SF-539 CNS, in the experiment with SN12C renal, in the experiment on TK-10 renal and in the experiment on UO-31 renal was above 150 µg/mL throughout.

For the molecule `COc1ccc(-c2ccc(-c3ccc(C(=N)N)o3)o2)cc1`, the GI50 with A498 renal is 1.76 µM; with ACHN renal, 1.8 µM; in the experiment on CAKI-1 renal, 1.75 µM; in the experiment with CCRF-CEM leukemia it was 1.84 µM; with HCC-2998 colon it was 1.58 µM; in the experiment with NCI-H226 lung, 22 µM. Besides, the GI50 was 1.88 µM in the experiment with SF-539 CNS, 2.02 µM in the experiment on SN12C renal, 7.97 µM in the experiment with TK-10 renal and 1.72 µM in the experiment with UO-31 renal. Also, the TGI stood at 7.48 µM in the experiment on A498 renal; 4.2 µM in the experiment with ACHN renal; 4.29 µM in the experiment with CAKI-1 renal; 6.75 µM in the experiment on CCRF-CEM leukemia; 3.23 µM in the experiment on HCC-2998 colon; 42.8 µM with NCI-H226 lung. Besides, the TGI turned out to be 3.63 µM in the experiment with SF-539 CNS, 4.59 µM in the experiment with SN12C renal, 21 µM in the experiment with TK-10 renal and 3.79 µM with UO-31 renal.

For `CN(C)CC/[N+]([O-])=C(/c1ccccc1)C12CC3CC(CC(C3)C1)C2`, the TGI with A498 renal was found to be 32.6 µM; in the experiment on ACHN renal, 29.8 µM; in the experiment on CAKI-1 renal it was 31.5 µM; in the experiment on CCRF-CEM leukemia it was 34.3 µM; in the experiment on HCC-2998 colon it was 37.6 µM; in the experiment on NCI-H226 lung, 27.5 µM. The TGI was determined as 30.8 µM in the experiment on SF-539 CNS, 31.9 µM in the experiment on SN12C renal, 30.7 µM with TK-10 renal and 24.6 µM in the experiment with UO-31 renal.

Regarding `C#CCOc1cccc(Nc2ncnc3cc(NC(=O)CCl)ccc23)c1`, the GI50 is 12.7 µM with A498 renal; 4.9 µM with ACHN renal; 3.51 µM in the experiment with CAKI-1 renal; 1.55 µM in the experiment with CCRF-CEM leukemia; 8.83 µM with HCC-2998 colon; 10.7 µM in the experiment with NCI-H226 lung. The GI50 in the experiment with SF-539 CNS was 3.64 µM; in the experiment on SN12C renal, 4.1 µM; in the experiment on TK-10 renal, 5.22 µM; in the experiment on UO-31 renal, 3.31 µM. Also, the TGI with A498 renal is 25.9 µM; in the experiment with ACHN renal, 18 µM; with CAKI-1 renal it was 15 µM; in the experiment with CCRF-CEM leukemia, 8.85 µM; with HCC-2998 colon, 22.6 µM; in the experiment with NCI-H226 lung it was 32.7 µM. For the same molecule, the TGI in the experiment with SF-539 CNS is 15 µM; with SN12C renal it was 17.3 µM; in the experiment on TK-10 renal, 19.3 µM; in the experiment on UO-31 renal it was 15.7 µM.
